# Target: SARS-CoV-2 RBD^N501Y binding to ACE2 (Severe acute respiratory syndrome coronavirus 2, UniProt P0DTC2, N501Y)
compound,measurement,value
NCCS [Cysteamine],inhibition of binding of RBD^N501Y to ACE2,potently inhibited

# Reference: patent US12589104B2, “Thiosaccharides for use in treating coronavirus infection” (priority 2020, dated 2026)
